Measurements reported in ChEMBL document CHEMBL1146065, “Structure-based optimization of azole antifungal agents by CoMFA, CoMSIA, and molecular docking” (2006).
Values after ≈ are worked out from the molar mass of the structure shown.

Tests used:
Assay type in all cases: functional
[1] = test system: Trichophyton rubrum; assay: Antifungal activity against Trichophyton rubrum
[2] = test system: Sporothrix schenckii; assay: Antifungal activity against Sporothrix schenckii
[3] = test system: Candida albicans; assay: Antifungal activity against Candida albicans
[4] = test system: Cryptococcus neoformans; assay: Antifungal activity against Cryptococcus neoformans
[5] = test system: Aspergillus fumigatus; assay: Antifungal activity against Aspergillus fumigatus
[6] = test system: Candida parapsilosis; assay: Antifungal activity against Candida parapsilosis; details: Lodderomyces parapsilosis
[7] = test system: Fonsecaea pedrosoi; assay: Antifungal activity against Fonsecaea pedrosoi
[8] = test system: Candida tropicalis; assay: Antifungal activity against Candida tropicalis
[9] = test system: Microsporum; assay: Antifungal activity against Microsporum lanosum

SMILES | MIC80 [1] | MIC80 [2] | MIC80 [3] | MIC80 [4] | MIC80 [5] | MIC80 [6] | MIC80 [7] | MIC80 [8] | MIC80 [9]
CN(Cc1ccc(-n2cnn(Cc3ccc(Cl)cc3)c2=O)cc1)CC(O)(Cn1cncn1)c1ccc(F)cc1F (stereo not drawn) | 0.5 µg/mL (≈ 0.883 µM) | 64 µg/mL (≈ 113 µM) | 0.002 µg/mL (≈ 0.00353 µM) | 0.5 µg/mL (≈ 0.883 µM) | 4 µg/mL (≈ 7.07 µM) | 0.008 µg/mL (≈ 0.0141 µM) | 0.125 µg/mL (≈ 0.221 µM) | 0.0625 µg/mL (≈ 0.11 µM) | 
CN(Cc1ccc(-n2cnn(Cc3cc(F)ccc3Br)c2=O)cc1)CC(O)(Cn1cncn1)c1ccc(F)cc1F (stereo not drawn) | 2 µg/mL (≈ 3.18 µM) | 16 µg/mL (≈ 25.5 µM) | 0.002 µg/mL (≈ 0.00318 µM) | 0.5 µg/mL (≈ 0.796 µM) | 32 µg/mL (≈ 50.9 µM) | 0.008 µg/mL (≈ 0.0127 µM) | 0.25 µg/mL (≈ 0.398 µM) | 0.25 µg/mL (≈ 0.398 µM) | 
Cc1ccc(C(=O)Cn2ncn(-c3ccc(CN(C)CC(O)(Cn4cncn4)c4ccc(F)cc4F)cc3)c2=O)c(C)c1 (stereo not drawn) | 0.5 µg/mL (≈ 0.851 µM) | 64 µg/mL (≈ 109 µM) | 0.002 µg/mL (≈ 0.0034 µM) | 0.5 µg/mL (≈ 0.851 µM) | 8 µg/mL (≈ 13.6 µM) | 0.125 µg/mL (≈ 0.213 µM) | 0.0625 µg/mL (≈ 0.106 µM) | 0.0625 µg/mL (≈ 0.106 µM) | 
CN(Cc1ccc(-n2cnn(Cc3ccc(Br)cc3F)c2=O)cc1)CC(O)(Cn1cncn1)c1ccc(F)cc1F (stereo not drawn) | 0.5 µg/mL (≈ 0.796 µM) | 64 µg/mL (≈ 102 µM) | 0.002 µg/mL (≈ 0.00318 µM) | 0.125 µg/mL (≈ 0.199 µM) | 4 µg/mL (≈ 6.36 µM) | 0.008 µg/mL (≈ 0.0127 µM) | 0.125 µg/mL (≈ 0.199 µM) | 0.0625 µg/mL (≈ 0.0995 µM) | 
CCc1ccc(C(=O)Cn2ncn(-c3ccc(CN(C)CC(O)(Cn4cncn4)c4ccc(F)cc4F)cc3)c2=O)cc1 (stereo not drawn) | 32 µg/mL (≈ 54.5 µM) | 64 µg/mL (≈ 109 µM) | 0.25 µg/mL (≈ 0.425 µM) | 16 µg/mL (≈ 27.2 µM) | 64 µg/mL (≈ 109 µM) | 2 µg/mL (≈ 3.4 µM) | 8 µg/mL (≈ 13.6 µM) | 0.5 µg/mL (≈ 0.851 µM) | 
CN(Cc1ccc(-n2cnn(CC(=O)c3ccc(Br)cc3)c2=O)cc1)CC(O)(Cn1cncn1)c1ccc(F)cc1F (stereo not drawn) | 0.25 µg/mL (≈ 0.392 µM) | 64 µg/mL (≈ 100 µM) | 0.002 µg/mL (≈ 0.00313 µM) | 0.25 µg/mL (≈ 0.392 µM) | 16 µg/mL (≈ 25.1 µM) | 1 µg/mL (≈ 1.57 µM) | 0.0625 µg/mL (≈ 0.0979 µM) | 0.0625 µg/mL (≈ 0.0979 µM) | 
CN(Cc1ccc(NC(=O)c2ccccc2Cl)cc1)CC(O)(Cn1cncn1)c1ccc(F)cc1F (stereo not drawn) | 4 µg/mL (≈ 7.81 µM) |  | 0.0625 µg/mL (≈ 0.122 µM) | 2 µg/mL (≈ 3.91 µM) | 32 µg/mL (≈ 62.5 µM) | 0.25 µg/mL (≈ 0.488 µM) | 2 µg/mL (≈ 3.91 µM) | 0.5 µg/mL (≈ 0.977 µM) | 2 µg/mL (≈ 3.91 µM)
CN(Cc1ccc(-n2cnn(Cc3ccc(Cl)cc3Cl)c2=O)cc1)CC(O)(Cn1cncn1)c1ccc(F)cc1F (stereo not drawn) | 0.25 µg/mL (≈ 0.416 µM) | 4 µg/mL (≈ 6.66 µM) | 0.002 µg/mL (≈ 0.00333 µM) | 0.008 µg/mL (≈ 0.0133 µM) | 2 µg/mL (≈ 3.33 µM) | 0.008 µg/mL (≈ 0.0133 µM) | 0.125 µg/mL (≈ 0.208 µM) | 0.0625 µg/mL (≈ 0.104 µM) | 
CN(Cc1ccc(-n2cnn(Cc3cccc(C(F)(F)F)c3)c2=O)cc1)CC(O)(Cn1cncn1)c1ccc(F)cc1F (stereo not drawn) | 0.5 µg/mL (≈ 0.834 µM) | 64 µg/mL (≈ 107 µM) | 0.002 µg/mL (≈ 0.00334 µM) | 0.125 µg/mL (≈ 0.208 µM) | 16 µg/mL (≈ 26.7 µM) | 0.008 µg/mL (≈ 0.0133 µM) | 0.125 µg/mL (≈ 0.208 µM) | 0.0625 µg/mL (≈ 0.104 µM) | 
CN(Cc1ccc(-n2cnn(Cc3ccc(C(F)(F)F)cc3)c2=O)cc1)CC(O)(Cn1cncn1)c1ccc(F)cc1F (stereo not drawn) | 0.5 µg/mL (≈ 0.834 µM) | 16 µg/mL (≈ 26.7 µM) | 0.001 µg/mL (≈ 0.00167 µM) | 0.25 µg/mL (≈ 0.417 µM) | 8 µg/mL (≈ 13.3 µM) | 0.008 µg/mL (≈ 0.0133 µM) | 0.0625 µg/mL (≈ 0.104 µM) | 0.0625 µg/mL (≈ 0.104 µM) | 
CN(Cc1ccc(-n2cnn(CC(=O)c3ccc(Cl)cc3)c2=O)cc1)CC(O)(Cn1cncn1)c1ccc(F)cc1F (stereo not drawn) | 4 µg/mL (≈ 6.73 µM) | 64 µg/mL (≈ 108 µM) | 0.004 µg/mL (≈ 0.00673 µM) | 2 µg/mL (≈ 3.37 µM) | 64 µg/mL (≈ 108 µM) | 0.03 µg/mL (≈ 0.0505 µM) | 0.25 µg/mL (≈ 0.421 µM) | 0.0625 µg/mL (≈ 0.105 µM) | 
CN(Cc1ccc(-n2cnn(Cc3cccc(Cl)c3)c2=O)cc1)CC(O)(Cn1cncn1)c1ccc(F)cc1F (stereo not drawn) | 0.5 µg/mL (≈ 0.883 µM) | 32 µg/mL (≈ 56.5 µM) | 0.016 µg/mL (≈ 0.0283 µM) | 0.5 µg/mL (≈ 0.883 µM) | 8 µg/mL (≈ 14.1 µM) | 4 µg/mL (≈ 7.07 µM) | 0.125 µg/mL (≈ 0.221 µM) | 0.5 µg/mL (≈ 0.883 µM) | 
CN(Cc1ccc(-n2cnn(Cc3ccc(F)cc3Br)c2=O)cc1)CC(O)(Cn1cncn1)c1ccc(F)cc1F (stereo not drawn) | 1 µg/mL (≈ 1.59 µM) | 64 µg/mL (≈ 102 µM) | 0.004 µg/mL (≈ 0.00636 µM) | 0.125 µg/mL (≈ 0.199 µM) | 16 µg/mL (≈ 25.5 µM) | 0.008 µg/mL (≈ 0.0127 µM) | 0.25 µg/mL (≈ 0.398 µM) | 0.125 µg/mL (≈ 0.199 µM) | 
CN(Cc1ccc(-n2cnn(Cc3ccc(Br)cc3)c2=O)cc1)CC(O)(Cn1cncn1)c1ccc(F)cc1F (stereo not drawn) | 0.25 µg/mL (≈ 0.41 µM) | 64 µg/mL (≈ 105 µM) | 0.002 µg/mL (≈ 0.00328 µM) | 0.008 µg/mL (≈ 0.0131 µM) | 8 µg/mL (≈ 13.1 µM) | 0.008 µg/mL (≈ 0.0131 µM) | 0.0625 µg/mL (≈ 0.102 µM) | 0.0625 µg/mL (≈ 0.102 µM) | 
CN(Cc1ccc(-n2cnn(Cc3ccc(C(C)(C)C)cc3)c2=O)cc1)CC(O)(Cn1cncn1)c1ccc(F)cc1F (stereo not drawn) | 0.5 µg/mL (≈ 0.851 µM) | 32 µg/mL (≈ 54.5 µM) | 0.031 µg/mL (≈ 0.0528 µM) | 2 µg/mL (≈ 3.4 µM) | 8 µg/mL (≈ 13.6 µM) | 4 µg/mL (≈ 6.81 µM) | 0.25 µg/mL (≈ 0.425 µM) | 1 µg/mL (≈ 1.7 µM) | 
CN(Cc1ccc(-n2cnn(Cc3ccc(I)cc3)c2=O)cc1)CC(O)(Cn1cncn1)c1ccc(F)cc1F (stereo not drawn) | 0.25 µg/mL (≈ 0.38 µM) | 64 µg/mL (≈ 97.3 µM) | 0.031 µg/mL (≈ 0.0472 µM) | 0.25 µg/mL (≈ 0.38 µM) | 2 µg/mL (≈ 3.04 µM) | 0.031 µg/mL (≈ 0.0472 µM) | 0.0625 µg/mL (≈ 0.0951 µM) | 1 µg/mL (≈ 1.52 µM) | 
